Source: patent publication US11897862B2 (Gilead Sciences, Inc., priority 2022, dated 2024)
Read-outs that look alike come from different tables or passages of the source.

Key:
Assay type in all cases: cell-based
[1] = biological target: T1, IKZF2 (Homo sapiens, UniProt Q96SW2+Q9UKS7); assay: HEK293 IKZF2 degradation kinetics (HiBiT, timepoints 1-24 h); design: expressed in transfected cells; conditions: for kinact: HEK293, IKZF2, timepoints 1, 2, 3, 4.5 and 24 hour, read-out: Maximum degradation rate Kinact (converted)
Description: The assay technology and principles for evaluating IKZF2 degradation kinetics in HEK293 cells was identical to the HEK293 degradation assay as described above. Additional details are briefly described below.
On Day 1, Cells were grown and induced the same as described above. On Days 2 and 3, compounds for testing were dispensed via ECHO and cells were lifted and plated into compound-spotted assay plates as above. Plates were returned to the 37° C. incubator until addition of Nano-Glo lytic reagent at 1, 2, 3, 4.5, and 24 hour timepoints. At these timepoints, plates were read on Envision reader as above.
All raw data was normalized to DMSO control (final concentration: 0.5%) wells as POC and plotted out as a function of time to generate the degradation rate constant (K) value. The maximum degradation rate (Kinact) was determined by plotting the K value as a function of concentration for each compound tested. Kinact values are shown in Table 25 and the degradation rate plots as well as timecourse of degradation are shown for select compounds in FIG. 1A, FIG. 1B, FIG. 2A and FIG. 2B.
Target sequence in this assay (Q9UKS7 1-500 isoform Q9UKS7-2): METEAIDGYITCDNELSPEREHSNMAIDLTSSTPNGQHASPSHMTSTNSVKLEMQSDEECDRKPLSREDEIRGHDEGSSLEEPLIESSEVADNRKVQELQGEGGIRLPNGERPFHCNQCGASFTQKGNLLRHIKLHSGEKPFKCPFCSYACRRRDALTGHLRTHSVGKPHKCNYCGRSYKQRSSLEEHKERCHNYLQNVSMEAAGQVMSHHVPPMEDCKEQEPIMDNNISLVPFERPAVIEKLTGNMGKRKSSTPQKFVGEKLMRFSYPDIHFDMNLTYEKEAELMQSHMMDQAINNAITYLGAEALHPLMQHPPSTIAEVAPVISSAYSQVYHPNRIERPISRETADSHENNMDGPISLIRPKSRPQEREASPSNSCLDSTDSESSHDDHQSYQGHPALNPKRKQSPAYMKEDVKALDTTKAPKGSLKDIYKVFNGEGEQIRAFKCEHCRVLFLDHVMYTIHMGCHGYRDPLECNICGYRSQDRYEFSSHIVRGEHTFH
Target sequence in this assay (Q96SW2 whole entry): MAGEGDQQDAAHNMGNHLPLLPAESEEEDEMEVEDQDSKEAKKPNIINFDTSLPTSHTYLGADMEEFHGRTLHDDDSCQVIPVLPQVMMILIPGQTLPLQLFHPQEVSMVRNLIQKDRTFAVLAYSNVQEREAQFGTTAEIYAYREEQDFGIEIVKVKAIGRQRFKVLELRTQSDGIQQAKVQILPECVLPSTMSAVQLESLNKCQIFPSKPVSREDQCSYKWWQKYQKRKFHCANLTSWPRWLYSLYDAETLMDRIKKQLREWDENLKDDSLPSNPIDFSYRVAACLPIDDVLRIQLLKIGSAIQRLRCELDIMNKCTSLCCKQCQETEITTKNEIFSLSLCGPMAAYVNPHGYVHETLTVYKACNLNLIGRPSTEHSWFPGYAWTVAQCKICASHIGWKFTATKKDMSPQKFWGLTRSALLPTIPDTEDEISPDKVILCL
Target sequence in this assay (Q16531 whole entry partner): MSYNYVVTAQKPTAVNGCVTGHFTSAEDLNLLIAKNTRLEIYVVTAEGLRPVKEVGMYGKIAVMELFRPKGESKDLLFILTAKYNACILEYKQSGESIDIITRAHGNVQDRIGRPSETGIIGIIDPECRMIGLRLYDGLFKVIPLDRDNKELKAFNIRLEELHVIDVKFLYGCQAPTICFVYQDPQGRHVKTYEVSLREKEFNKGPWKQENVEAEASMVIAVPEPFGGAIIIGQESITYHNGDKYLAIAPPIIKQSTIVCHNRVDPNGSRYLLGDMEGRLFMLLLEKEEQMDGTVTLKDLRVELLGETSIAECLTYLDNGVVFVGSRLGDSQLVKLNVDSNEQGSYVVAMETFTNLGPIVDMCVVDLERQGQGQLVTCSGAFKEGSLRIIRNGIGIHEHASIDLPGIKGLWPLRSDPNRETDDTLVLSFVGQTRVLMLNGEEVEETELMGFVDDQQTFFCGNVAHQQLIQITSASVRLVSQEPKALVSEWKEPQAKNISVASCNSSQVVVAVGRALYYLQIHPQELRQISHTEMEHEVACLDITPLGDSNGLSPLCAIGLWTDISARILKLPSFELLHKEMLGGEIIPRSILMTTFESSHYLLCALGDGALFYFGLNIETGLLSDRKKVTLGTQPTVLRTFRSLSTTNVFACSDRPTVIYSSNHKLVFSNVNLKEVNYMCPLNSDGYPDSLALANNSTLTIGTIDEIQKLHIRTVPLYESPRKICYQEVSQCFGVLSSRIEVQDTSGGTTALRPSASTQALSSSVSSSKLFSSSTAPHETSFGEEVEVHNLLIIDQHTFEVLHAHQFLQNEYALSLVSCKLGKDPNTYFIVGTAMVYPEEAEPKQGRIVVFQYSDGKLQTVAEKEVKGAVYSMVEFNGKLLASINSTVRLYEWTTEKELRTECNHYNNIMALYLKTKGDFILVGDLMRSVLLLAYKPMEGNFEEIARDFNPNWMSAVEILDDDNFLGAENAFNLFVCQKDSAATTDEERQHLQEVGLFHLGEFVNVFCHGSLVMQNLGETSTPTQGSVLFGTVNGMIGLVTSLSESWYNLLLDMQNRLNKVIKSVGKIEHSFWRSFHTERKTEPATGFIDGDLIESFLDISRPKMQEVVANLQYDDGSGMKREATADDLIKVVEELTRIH

[2] = biological target: T1, IKZF2; assay: Jurkat IKZF2 degradation (flow cytometry); design: endogenous in cells; conditions: Jurkat cells, overnight incubation; for DC50: flow cytometry, normalized to DMSO control, read-out: IKZF2 Degradation EC50; for Dmax: maximum degradation at the highest concentration tested
Description: (§1) Jurkat cell line (ATCC, Clone E6-1), highly expresses IKZF2 and lends it an appropriate system to screen degradation along with a functional readout. Jurkat cells were grown to 80% confluency in TC medium (RPMI containing glutamax, 10% FBS, 1% NEAA, and 1% Pen/Strep Glutamin in tissue culture flasks.
(§2) The cells were spun down at 400 g for 5 mins and counted. 100 K cells per well were added to a 96-well plate. The compounds were introduced starting at 10 μM and dilutions were made 1:10 for each compound. 100 μL of compound was added to each well for a 12-point titration. The cells were incubated at 37° C. with 5% CO2 overnight.
Cells were stained with appropriate surface and intracellular antibodies and acquired by flow cytometry and analysed for degradation. […]
Target sequence in this assay (Q9UKS7 whole entry): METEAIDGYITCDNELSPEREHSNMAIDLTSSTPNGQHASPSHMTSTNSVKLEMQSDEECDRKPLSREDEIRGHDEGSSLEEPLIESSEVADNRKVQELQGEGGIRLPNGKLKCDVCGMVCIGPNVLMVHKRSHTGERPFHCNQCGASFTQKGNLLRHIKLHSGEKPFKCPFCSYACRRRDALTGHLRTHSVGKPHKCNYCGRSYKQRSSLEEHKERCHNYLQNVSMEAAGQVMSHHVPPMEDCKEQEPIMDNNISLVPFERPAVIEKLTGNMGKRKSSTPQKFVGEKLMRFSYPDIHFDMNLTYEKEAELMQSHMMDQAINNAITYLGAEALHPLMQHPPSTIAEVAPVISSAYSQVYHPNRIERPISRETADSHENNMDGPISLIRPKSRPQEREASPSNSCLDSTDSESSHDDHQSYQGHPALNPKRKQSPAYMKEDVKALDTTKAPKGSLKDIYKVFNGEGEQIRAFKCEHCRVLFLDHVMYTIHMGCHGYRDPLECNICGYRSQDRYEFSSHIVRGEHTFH
Target sequence in this assay (Q96SW2 whole entry): as the sequence (Q96SW2 whole entry) above
Target sequence in this assay (Q16531 whole entry partner): as the sequence (Q16531 whole entry partner) above

[3] = tested on: IL-2 production in Jurkat cells; assay: Jurkat IL-2 functional assay (ELISA of supernatants); conditions: Homo sapiens; for maximal fold induction: Jurkat, top of the curve fit; for EC50: overnight incubation
Description: as §1, §2
The following day, supernatants were collected for a functional readout using ELISA. The supernatants were diluted 1:2 and added to appropriate Human IL-2 plates for IL-2 functional readout.
The top of the curve fit for each compound is reported as the IL-2 ‘fold increase over DMSO control.’

[4] = biological target: T2, IKZF1 (Homo sapiens, UniProt Q13422+Q96SW2); assay: HEK293 HiBiT in vitro degradation of IKZF1; conditions: for Dmax: HEK293, HEK293 HiBiT, maximum degradation at the highest concentration tested; for DC50: HEK293 HiBiT, 18-24 hr incubation, normalized to DMSO control, read-out: IKZF1 EC50
T2 construct: expressed in transfected cells
In short: (§3)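 Degradation was scored as loss of HiBiT signal from C-terminally tagged IKZF1, IKZF2 or SALL4 in doxycycline-induced Flp-In T-REx HEK293 cells after overnight (18-24 h) compound treatment. EC50 and Dmax were derived from the luminescence.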

[5] = biological target: T1, IKZF2; assay: Human whole blood IKZF2 degradation (flow cytometry, CD4/CD25/Foxp3+ Treg cells); design: endogenous in cells; conditions: for Dmax / DC50: 24 hrs incubation, IKZF2 MFI in CD4/CD25/Foxp3+ Treg cells, flow cytometry; for DC50: read-out: IKZF2 EC50
In short: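 Fresh healthy-donor human whole blood stimulated with CD3/CD28 activator and serially diluted compound for 24 hrs at 37° C. IKZF2 MFI in CD4/CD25/Foxp3+ Tregs (IKZF1 MFI in CD4+ T cells) measured by flow cytometry after RBC lysis, fixation, permeabilization. EC50 and Dmax versus DMSO wells.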
Target sequence in this assay (Q9UKS7 whole entry): as the sequence (Q9UKS7 whole entry) above
Target sequence in this assay (Q96SW2 whole entry): as the sequence (Q96SW2 whole entry) above
Target sequence in this assay (Q16531 whole entry partner): as the sequence (Q16531 whole entry partner) above

[6] = biological target: T1, IKZF2; assay: HEK293 HiBiT in vitro degradation of IKZF2; design: expressed in transfected cells; conditions: for DC50: 18-24 hr incubation, normalized to DMSO control, read-out: IKZF2 EC50; for Dmax: HEK293, HEK293 HiBiT
In short: as §3
Target sequence in this assay (Q9UKS7 1-500 isoform Q9UKS7-2): as the sequence (Q9UKS7 1-500 isoform Q9UKS7-2) above
Target sequence in this assay (Q96SW2 whole entry): as the sequence (Q96SW2 whole entry) above
Target sequence in this assay (Q16531 whole entry partner): as the sequence (Q16531 whole entry partner) above

[7] = biological target: T3, SALL4 (Homo sapiens, UniProt Q96SW2+Q9UJQ4); assay: HEK293 HiBiT in vitro degradation of SALL4; conditions: for DC50: 18-24 hr incubation, normalized to DMSO control, read-out: SALL4 EC50
T3 construct: expressed in transfected cells
Description: In vitro degradation of IKZF1, IKZF2, and SALL4 was measured using HiBiT protein tagging and detection technology (Promega).
HiBit technology was used to develop the quantitative assays to measure the cellular IKZFs level by tagging an 11 amino acid HiBit peptides […] to the protein of interest. Reporter plasmids were generated by fusing a linker sequence ([…]) followed by the HiBit tag at the C-terminus of IKZF1, IKZF2, and SALL4. The fusion fragments were subsequently cloned into pcDNA5 pcDNA™5/FRT/TO plasmids (Thermo Fisher, cat #V652020) downstream of the tetracycline operator. The resulting plasmids were co-transfected with pOG44 Flp-Recombinase Expression Vector (Thermo Fisher, cat #V600520) into Flp-In™ T-REx HEK293 line (Thermo Fisher, cat #R78077) and a stable cell pool was selected by adding 100 µg/ml of Hygromycin (Thermo Fisher, cat #10687010). The reporter cell enabled Tet-On inducible reporter expression from a single copy of the integrated gene.
On Day 1, Cells were grown to ˜80% confluency in tissue culture medium (DMEM Glutamax (Gibco10569), 10% Tet free FBS (Takara 631106), and PenStrep Glutamin (Gibco 10378)) in tissue culture flasks. Doxycycline was then added to a final concentration of […] to induce reporter expression at 37° C. overnight.
On Day 2, 125 nL of serially-diluted solution of testing compounds were dispensed into 384-well white solid assay plates via ECHO acoustic liquid handler. Cells were lifted by 0.25% Trypsin (Gibco 25200) then pelleted by centrifugation (Beckman Avanti J-E) at 500×g for 5 min. Cell pellets were resuspended in TC medium at the concentration of 3e5/mL and 25 μL of cell suspension were added into each well of compound-spotted plates. The plates were returned to a 37° C. incubator overnight (18-24 hr).
On Day 3, assay plates were removed from the tissue culture incubator and 25 μL of Nano-Glo lytic detection system (Promega, cat #N3030) was added to each well. Plates were incubated at r.t. for 3 min with shaking, and luminescence was read using an Envision reader (Perkin Elmer).
To assess the IKZF1, IKZF2, and SALL4 degrader potential of exemplified compounds of this disclosure and certain Reference Compounds EC50 and Dmax values were determined for the compounds of Examples 1 to 383 and Reference Compounds A-1, B-1, B-2, B-3, B-4, and C-1 in the HiBiT assays. Asterisks (*) indicate examples for which the data shown represents an average of n≥3.

[8] = ELISA of supernatants, read-out: IL-2 Production Fold increase over DMSO control
[9] = read-out: increase in IL-2 production relative to DMSO control
[10] = maximum degradation at the highest concentration tested

T2 sequence (Q13422 whole entry): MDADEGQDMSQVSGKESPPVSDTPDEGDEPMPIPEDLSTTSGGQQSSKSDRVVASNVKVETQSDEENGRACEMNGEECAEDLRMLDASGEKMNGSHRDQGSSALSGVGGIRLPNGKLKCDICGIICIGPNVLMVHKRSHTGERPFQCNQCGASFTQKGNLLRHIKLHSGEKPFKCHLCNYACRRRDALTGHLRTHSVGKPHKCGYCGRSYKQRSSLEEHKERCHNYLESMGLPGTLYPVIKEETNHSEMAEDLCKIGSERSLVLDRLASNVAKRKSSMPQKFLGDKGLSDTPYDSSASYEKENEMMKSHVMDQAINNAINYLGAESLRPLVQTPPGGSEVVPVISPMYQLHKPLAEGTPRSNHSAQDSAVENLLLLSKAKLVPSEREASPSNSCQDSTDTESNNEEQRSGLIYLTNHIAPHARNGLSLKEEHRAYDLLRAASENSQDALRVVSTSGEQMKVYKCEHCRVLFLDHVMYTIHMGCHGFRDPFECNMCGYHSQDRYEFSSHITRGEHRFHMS
T2 sequence (Q96SW2 whole entry): as the sequence (Q96SW2 whole entry) above
T2 sequence (Q16531 whole entry partner): as the sequence (Q16531 whole entry partner) above
T3 sequence (Q9UJQ4 whole entry): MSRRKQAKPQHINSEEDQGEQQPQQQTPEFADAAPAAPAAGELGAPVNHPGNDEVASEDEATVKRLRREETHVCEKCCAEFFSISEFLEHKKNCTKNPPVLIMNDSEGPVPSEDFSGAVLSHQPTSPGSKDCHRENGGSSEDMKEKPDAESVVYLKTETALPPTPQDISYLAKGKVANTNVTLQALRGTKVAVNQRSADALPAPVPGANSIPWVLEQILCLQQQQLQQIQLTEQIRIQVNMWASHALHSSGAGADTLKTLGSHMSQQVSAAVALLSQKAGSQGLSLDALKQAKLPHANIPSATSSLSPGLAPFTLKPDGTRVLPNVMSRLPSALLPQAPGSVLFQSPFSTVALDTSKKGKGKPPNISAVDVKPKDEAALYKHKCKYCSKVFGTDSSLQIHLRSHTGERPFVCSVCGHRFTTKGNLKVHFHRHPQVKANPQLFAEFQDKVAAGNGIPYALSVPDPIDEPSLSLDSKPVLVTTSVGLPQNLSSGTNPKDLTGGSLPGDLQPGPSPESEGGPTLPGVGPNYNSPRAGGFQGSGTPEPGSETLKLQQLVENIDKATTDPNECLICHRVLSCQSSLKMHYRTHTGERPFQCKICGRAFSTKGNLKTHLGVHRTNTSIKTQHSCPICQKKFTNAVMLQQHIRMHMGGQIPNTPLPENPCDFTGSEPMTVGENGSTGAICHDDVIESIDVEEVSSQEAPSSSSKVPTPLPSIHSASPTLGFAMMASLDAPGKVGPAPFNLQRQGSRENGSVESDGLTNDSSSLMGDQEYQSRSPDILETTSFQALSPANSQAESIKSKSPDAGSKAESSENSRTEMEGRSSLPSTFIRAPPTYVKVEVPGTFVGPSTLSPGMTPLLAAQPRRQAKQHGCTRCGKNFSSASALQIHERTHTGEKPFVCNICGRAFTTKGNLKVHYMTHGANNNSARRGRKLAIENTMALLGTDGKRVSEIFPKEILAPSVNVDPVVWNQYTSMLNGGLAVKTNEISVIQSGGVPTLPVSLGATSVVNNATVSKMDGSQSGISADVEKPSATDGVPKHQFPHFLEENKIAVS
T3 sequence (Q96SW2 whole entry): as the sequence (Q96SW2 whole entry) above
T3 sequence (Q16531 whole entry partner): as the sequence (Q16531 whole entry partner) above

Compound | kinact [1] | DC50 [2] | Dmax [2] | EC50 ([3]; ELISA of supernatants) | Dmax [4] | DC50 [4] | Dmax [5] | DC50 [5] | DC50 ([6]; HEK293 HiBiT) | IKZF2 Dmax ([6]; HEK293 HiBiT, maximum degradation at the highest concentration tested) | DC50 [7] | Dmax [6, 10] | speed of IKZF2 degradation compared with Reference Compounds A-1, B-3, B-4, C-1 ([1]; HEK293) | IKZF2 degradation potency compared with Reference Compound B-4 ([5]; 24 hrs) | Dmax [7, 10] | maximal fold induction [3, 8] | maximal fold induction [3, 9]
O=C1CCC(N2Cc3c(ccc(C[C@H]4OCCC[C@@H]4NC4CCC(C(F)F)CC4)c3F)C2=O)C(=O)N1 (single isomer, unassigned) [Example 283] | 9.44e-05 s⁻¹ | 1.4 nM | 90% | 1.9 nM | 26% | 92 nM | 96% | 5 nM | 4 nM | 98% | > 10000 nM | – | – | – | – | 2.1 | ≥ 1.9
CC(N[C@H]1CCCC[C@@H]1Cc1ccc2c(c1F)CN(C1CCC(=O)NC1=O)C2=O)C1CCOCC1 (single isomer, unassigned) [Example 287] | 0.000189 s⁻¹ | 0.6 nM | 96% | 0.6 nM | 47% | 66 nM | 92% | 2 nM | 1 nM | – | > 10000 nM | 95% | – | – | – | 2.5 | ≥ 1.9
O=C1CCC(N2Cc3cc(C[C@H]4CCCC[C@@H]4NC4CCC(F)(F)CC4)ccc3C2=O)C(=O)N1 (stereo partly drawn) [Example 46, 3-(5-(((1R,2S)-2-((4,4-difluorocyclohexyl)amino)cyclohexyl)methyl)-1-oxoisoindolin-2-yl)piperidine-2,6-dione] | 0.000158 s⁻¹ | 2 nM | 95% | 3.5 nM | 29% | 33 nM | 96% | 3 nM | 1 nM | – | > 10000 nM | 94% | faster degradation of IKZF2 | more potent | – | 2.7 | ≥ 1.9

Now from value to compound, other results behind:

kinact [1] | DC50 [2] | Dmax [2] | EC50 ([3]; ELISA of supernatants) | Dmax [4] | DC50 [4] | Dmax [5] | DC50 [5] | DC50 ([6]; HEK293 HiBiT) | IKZF2 Dmax ([6]; HEK293 HiBiT, maximum degradation at the highest concentration tested) | DC50 [7] | Dmax [6, 10] | speed of IKZF2 degradation compared with Reference Compounds A-1, B-3, B-4, C-1 ([1]; HEK293) | IKZF2 degradation potency compared with Reference Compound B-4 ([5]; 24 hrs) | Dmax [7, 10] | Compound | maximal fold induction [3, 8] | maximal fold induction [3, 9]
0.000175 s⁻¹ | 0.4 nM | 96% | 3.4 nM | 62% | 22 nM | 94% | 2 nM | 1 nM | – | > 10000 nM | 98% | – | – | – | O=C1CC[C@H](N2Cc3cc(C[C@H]4CCCC[C@@H]4NC4CCC(F)(F)CC4)ccc3C2=O)C(=O)N1 (single isomer, unassigned) [Example 328] | 2.7 | ≥ 1.9
0.000106 s⁻¹ | 0.1 nM | 90% | 0.03 nM | – | > 1000 nM | – | – | 5 nM | – | > 10000 nM | 97% | – | – | – | O=C1CC[C@H](N2Cc3c(ccc(C[C@H]4OCCC[C@@H]4N[C@H]4CC[C@H](F)CC4)c3F)C2=O)C(=O)N1 [Example 369] | 2 | ≥ 1.9
3.89e-05 s⁻¹ | – | 61% | 10 nM | – | – | 82% | – | – | – | – | 82% | – | – | 63% | O=C1CCC(N2Cc3cc(C4CCC(Cc5ccccc5)CC4)ccc3C2=O)C(=O)N1 (centres unmarked) [Example A-1] | 1.6 | –
